From patent US20130040982A1, “ORAL SUSTAINED RELEASE FORMULATION OF HUPERZINE A” (Yissum Research Development Company of the Hebrew …, priority 2010, published 2013)
Where two headings read alike, the source gives them in different places.

Legend:
Caco-2 cells = type: in vitro ADME
Protocol: Caco-2 cells were obtained from ATCC (Manassas, Va., USA) and grown in 75 cm^2 flasks with approximately 0.5-1×10^6 cells per flask, at a temperature of 37° C. in a 5% CO2 atmosphere with a relative humidity of 95%. The culture growth medium consisted of Dulbecco's Modified Eagle Medium (DMEM) supplemented with 10% heat-inactivated fetal bovine serum (FBS), 1% nonessential amino acids, and 2 mM L-glutamine. The medium was replaced twice weekly. All medium supplements were obtained from Biological Industries (Beth-Haemek, Israel).
Cells in a passage range of 52-60 were seeded at a density of […] on untreated culture inserts of a polycarbonate membrane with 0.4 μm pores and a surface area of 1.1 cm^2. The culture inserts containing Caco-2 monolayers were placed in Costar® 24-Transwell plates (12 mm wells). The culture medium was changed every other day. […]
The permeability coefficient (Papp) for each compound was calculated from the linear plot of drug accumulated versus time, using the following equation: […]
Intestinal permeability towards huperzine A was evaluated using an in vitro model with Caco-2 epithelial colorectal cell culture, and using an ex-vivo animal intestine model (Ussing chamber model), as described in the Materials and Methods section. […]

[1] = system: intestinal tissue (duodenum, jejunum, colon); type: in vitro ADME, rat
in vivo = details: rat, 0.5 mg/kg
Protocol: All surgical and experimental procedures were reviewed and approved by the Animal Experimentation Ethics Committee of the Hebrew University Hadassah Medical School, Jerusalem. Male Wistar rats (Harlan, Israel), 290-350 grams in weight, were used for all surgical procedures.
Animals were anesthetized for the period of surgery by intra-peritoneal injection of 1 ml/kg of ketamine (9%)-xylazine (1%) solution. An indwelling cannula was placed in the right jugular vein of each animal for systemic blood sampling, as described in Jiang et al. [Curr Med Chem 2003, 10:2231-2252]. The cannula was tunneled beneath the skin and exteriorized at the dorsal part of the neck. After completion of the surgical procedure, the animals were transferred to metabolic cages to recover overnight (12-18 hours). During this recovery period and throughout the experiment, food, but not water, was deprived. Animals were randomly assigned to the different experimental groups.
In order to study the pharmacokinetic parameters of huperzine A, identical doses (0.5 mg/kg) of huperzine A dissolved in water were administered to 6 animals by oral gavage needle and to 6 animals by intravenous infusion through the jugular vein cannula followed by injection of 0.2 ml of heparinized saline (50 IU/ml) to ensure the delivery of the whole dose. Systemic blood samples (400 μl) were taken 5 minutes prior to dosing, and at various time periods post-dose, as indicated. To prevent dehydration, equal volumes of physiological solution were introduced to the rats following each withdrawal of a blood sample.
Another group (4 animals) received huperzine A as an intra-peritoneal injection. The doses, the vehicle and the volume used in the intra-peritoneal administration were similar to those used in the oral administration experiments.
Absorption of huperzine A from the colon was studied using an additional experimental group (7 animals). A cannula was placed to the cecum, tunneled beneath the skin and exteriorized at the dorsal part of the neck. Following overnight recovery, the animals were dosed through the colonic cannula and the pharmacokinetic experiment was conducted. The doses, the vehicle and the volume used in the colonic administration were similar to those used in the oral administration experiments. The drug was infused over the course of 90 minutes.
Absorption of huperzine A from the duodenum was studied using another experimental group (5 animals). A cannula was placed to the duodenum, tunneled beneath the skin and exteriorized at the dorsal part of the neck. Following overnight recovery, the animals were dosed through the duodenal cannula and the pharmacokinetic experiment was conducted. […]
Huperzine A concentrations in plasma samples were determined by an HPLC assay. The area under plasma concentrations versus time curves (AUC) for huperzine A in individual rats were analyzed using WinNonlin® Professional software version 5.0.1, according to the non-compartmental analysis model, as were other pharmacokinetic parameters (elimination constant (10; elimination half-life (T1/2); peak concentration (Cmax); and time to reach peak concentration (Tmax)). The absolute bioavailability (F) of huperzine A was calculated from the ratio of the AUCs normalized by dose after oral and intravenous administration.
All tested compounds were analyzed using a Waters 2695 Separation Module HPLC system with a Waters 2475 Fluorescence Detector and a Waters 2996 Photodiode Array Detector (Waters Corporation). […]

[2] = type: physicochemical; details: 1 μg/ml
Protocol: 0.5 ml of a 1 μg/ml aqueous solution of huperzine A was placed in glass tubes and heated in an oven for 30, 60 or 90 minutes. The samples were then reconstituted with double-distilled water and the amount of remaining huperzine A was determined by HPLC, as described hereinabove.

[3] = in vivo, po, cited from earlier work

C/C=C1\[C@H]2C=C(C)C[C@]1(N)c1ccc(=O)[nH]c1C2 [huperzine A]
permeability coefficient (Papp) (Caco-2 cells): lower than that of antipyrine, and higher than that of mannitol
permeability towards huperzine A in the colon [1]: lower than in the jejunum and duodenum, but was still significant
bioavailability (in vivo; male, Wistar): ~50%
half-life (in vivo; male, Wistar): ~1.67 h
bioavailability following colonic infusion (in vivo; po): significantly lower than the bioavailability following oral bolus
bioavailability following duodenal infusion (in vivo; po): at least as high as the bioavailability following oral bolus
time of maximal plasma levels (Cmax) (in vivo; po): 25 to 30 min
temperature at which degradation of huperzine A was observed [2]: ≥ 150 °C
bioavailability ([3]; human): 99%
half-lives ([3]; human): 6 to 12 h
time to peak serum concentration [3]: approximately 1 hour
